Where “and” joins values, the source holds several entries; their conditions need not be identical. Equal entries are not always repeated. Where two headings read alike, the source gives them in different places.
Tests used:
[1] = Biodegradability, 301 A DOC Die-Away Test (OECD Guidelines)
Experimental: The biodegradability of phytic citrate was evaluated according to the method of “301 A DOC Die-Away Test” (1993), OECDGuidelines for Testing of Chemicals.

[2] = Comparison of chelating effects, divalent cation electrode and ion analyzer; type: binding; set-up: unit not given here
Experimental: The chelating effects of the various chelators were measured by the conventional method known to an artisan in the art. The concentration of the ions chelated by the chelator was determined using a divalent cation electrode (e.g., Model 93-32, made by Orion Research Incorporated) and an ion analyzer (e.g., Model EA 920, made by Orion Research Incorporated).

[3] = at 66 grams/liter; cited from earlier work
[4] = Re-dissolution rate of Fe^2+, FIG. 2; details: in brain tissues, compared with phytic acid and EDTA
[5] = 7 days, test suspension / reference flask
[6] = 14 days, test suspension / reference flask

Nc1ccccc1 [Aniline Reference, Aniline, reference compound]
Degradation (%) in days [1, 5]: >90 (100) % | Degradation (%) in days [1, 6]: >90 (99.7) %

O=C(O)CC(O)(CC(=O)O)C(=O)O [Citric acid]
Ca^2+ (conc. of ions chelated) [2]: 3.50

O=C(O)CN(CCN(CC(=O)O)CC(=O)O)CC(=O)O [EDTA, ethylenediaminetetraacetic acid]
Ca^2+ (conc. of ions chelated) [2]: 10.70

O=C(O)[C@H](O)[C@@H](O)[C@H](O)[C@H](O)CO [Gluconic acid]
Ca^2+ (conc. of ions chelated) [2]: 1.20

CC(O)C(=O)O (stereo not drawn) [Lactic acid]
Ca^2+ (conc. of ions chelated) [2]: 1.07

O=P(O)(O)O[C@H]1[C@H](OP(=O)(O)O)[C@@H](OP(=O)(O)O)[C@H](OP(=O)(O)O)[C@@H](OP(=O)(O)O)[C@H]1OP(=O)(O)O [Phytic acid]
Ca^2+ (conc. of ions chelated) ([2]; pH 3): 9.73 | Ca^2+ (conc. of ions chelated) ([2]; pH 5): 10.55 | Ca^2+ (conc. of ions chelated) ([2]; pH 7): 10.57 | pH of aqueous solution [3]: 0.9

Polyphosphoric acid
Ca^2+ (conc. of ions chelated) [2]: 3.0

phytic hexa-citrate [Phytic citrate]
Ca^2+ (conc. of ions chelated) [2]: 12.24 | Degradation (%) in days ([1]; 7 days, abiotic sterile control): <10% | Degradation (%) in days ([1]; 7 days, absorption control): <10% | Degradation (%) in days [1, 5]: >90 (98.0) % and >90 (97.6) % and >90 (99.4) % | Degradation (%) in days ([1]; 14 days (mean of test suspension flasks 1-3)): >90 (99.5) % | Degradation (%) in days ([1]; 14 days, abiotic sterile control): <10% | Degradation (%) in days ([1]; 14 days, absorption control): <10% | Degradation (%) in days [1, 6]: >90 (98.6) % and >90 (100) % | Biodegradability (conclusion in words) ([1]; results of Table 3): readily biodegradable | Re-dissolution rate of Fe^2+ [4]: superior redissolution capability to phytic acid and EDTA

From patent US7989435B2, “Phytic citrate compounds and process for preparing the same” (IP-6 Research, Inc., priority 2005, dated 2011)
